These results are taken from patent US9040528B2, “Chemical compounds 542” (AstraZeneca AB, priority 2008, dated 2015).

The structures appear in SMILES notation.

In one test the target is Escherichia coli DNA gyrase A/B tetramer (Escherichia coli (strain K12), UniProt P0AES4+P0AES6). Description: DNA gyrase supercoiling activity fluorescence polarisation assay. The test is classed as biochemical.
Details: not given
In short, it runs like this:
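Supercoiling reactions quenched with 40 nM 5′-BODIPY-FL triplex-forming oligonucleotide probe in pH 3.5 NaCl/sodium acetate buffer; after 60 min, fluorescence anisotropy read (ex 485/em 535 nm). IC50 by nonlinear regression, normalised to 0.8% DMSO (100% activity) and 5 μM ciprofloxacin (0% activity).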
What is called IC50 is the concentration that gives 50% inhibition. Molecule `C[C@@H]1CN2c3c(cc4c(C(=O)N5CC(C#N)C5)noc4c3F)CC3(C(=O)NC(=O)NC3=O)[C@H]2[C@H](C)O1` (relative stereo) [Example 164, 1-((2R,4 S,4 aS)-rel-11-fluoro-2,4-dimethyl-2′,4′,6′-trioxo-2,2′,3′,4,4a,4′,6,6′-octahydro-1H,1′H-spiro[isoxazolo[4,5-g][1,4]oxazino[4,3-a]quinoline-5,5′-pyrimidine]-8-ylcarbonyl)azetidine-3-carbonitrile] had an IC50 of 1.2 µM.
`C[C@@H]1CN2c3c(cc4c(CO)noc4c3F)CC3(C(=O)NC(=O)NC3=O)[C@H]2[C@H](C)O1` (relative stereo) [Example 185, (2R,4S,4aS)-rel-11-fluoro-8-(hydroxymethyl)-2,4-dimethyl-2,4,4a,6-tetrahydro-1H,1′H-spiro[isoxazolo[4,5-g][1,4]oxazino[4,3-a]quinoline-5,5′-pyrimidine]-2′,4′,6′(3′H)-trione] displayed a half-inhibitory concentration (IC50) of 1.4 µM.

The same test, now with this note: 5 nM enzyme, relaxed plasmid, 0.3 mM ATP, ambient temperature; read-out: E. coli DNA gyrase supercoiling IC50.
Turning to `CC(=O)NC1CN(C(=O)c2noc3c(F)c4c(cc23)CC2(C(=O)NC(=O)NC2=O)[C@H]2[C@H](C)O[C@H](C)CN42)C1` (relative stereo) [Example 160, N-(1-((2R,4S,4aS)-rel-11-fluoro-2,4-dimethyl-2′,4′,6′-trioxo-2,2′,3′,4,4a,4′,6,6′-octahydro-1H,1′H-spiro[isoxazolo[4,5-g][1,4]oxazino[4,3-a]quinoline-5,5′-pyrimidine]-8-ylcarbonyl)azetidin-3-yl)acetamide], the half-maximal inhibitory concentration (IC50) was 1 µM.
Still for that read-out and setting: under `C[C@@H]1CN2c3c(cc4c(C(=O)NCc5ccn(C)n5)noc4c3F)CC3(C(=O)NC(=O)NC3=O)[C@H]2[C@H](C)O1` (relative stereo) [Example 161, (2R,4S,4aS)-rel-11-fluoro-2,4-dimethyl-N-((1-methyl-1H-pyrazol-3-yl)methyl)-2′,4′,6′-trioxo-2,2′,3′,4,4a,4′,6,6′-octahydro-1H,1′H-spiro[isoxazolo[4,5-g][1,4]oxazino[4,3-a]quinoline-5,5′-pyrimidine]-8-carboxamide] stands 1.3 µM.
In the case of `COCC(COC)(COC)NC(=O)c1noc2c(F)c3c(cc12)CC1(C(=O)NC(=O)NC1=O)[C@H]1[C@H](C)O[C@H](C)CN31` (relative stereo) [Example 163, (2R,4S,4aS)-rel-N-(1,3-dimethoxy-2-(methoxymethyl)propan-2-yl)-11-fluoro-2,4-dimethyl-2′,4′,6′-trioxo-2,2′,3′,4,4a,4′,6,6′-octahydro-1H,1′H-spiro[isoxazolo[4,5-g][1,4]oxazino[4,3-a]quinoline-5,5′-pyrimidine]-8-carboxamide], the IC50 turned out to be 17 µM.
Turning to `C[C@@H]1CN2c3c(cc4c(-c5cnccn5)noc4c3F)CC3(C(=O)NC(=O)NC3=O)[C@H]2[C@H](C)O1` (relative stereo) [Example 165, (2R,4S,4aS)-rel-11-fluoro-2,4-dimethyl-8-(pyrazin-2-yl)-1,2,4,4a-tetrahydro-2′H,6H-spiro[1,4-oxazino[4,3-a][1,2]oxazolo[4,5-g]quinoline-5,5′-pyrimidine]-2′,4′,6′(1′H,3′H)-trione], the IC50 amounted to 0.4 µM.
`C[C@@H]1CN2c3c(cc4c(-c5cncc(N(C)C)n5)noc4c3F)CC3(C(=O)NC(=O)NC3=O)[C@H]2[C@H](C)O1` (relative stereo) [Example 177, (2R,4S,4aS)-rel-8-(6-(dimethylamino)pyrazin-2-yl)-11-fluoro-2,4-dimethyl-2,4,4a,6-tetrahydro-1H,1′H-spiro[isoxazolo[4,5-g][1,4]oxazino[4,3-a]quinoline-5,5′-pyrimidine]-2′,4′,6′(3′H)-trione]: the IC50 came out at 5 µM.
With `C[C@@H]1CN2c3c(cc4c(N5CCNCC5)noc4c3F)CC3(C(=O)NC(=O)NC3=O)[C@H]2[C@H](C)O1` (relative stereo) [Example 179, (2R,4S,4aS)-rel-11-fluoro-2,4-dimethyl-8-(piperazin-1-yl)-1,2,4,4a-tetrahydro-2′H,6H-spiro[isoxazolo[4,5-g][1,4]oxazino[4,3-a]quinoline-5,5′-pyrimidine]-2′,4′,6′(1′H,3′H)-trione], the IC50 is 2 µM.
Still for that read-out and setting: under `C[C@@H]1CN2c3c(cc4c([S+](C)[O-])noc4c3F)CC3(C(=O)NC(=O)NC3=O)[C@H]2[C@H](C)O1` (relative stereo) [Example 181, (2R,4S,4aS)-rel-11-fluoro-2,4-dimethyl-8-(methylsulfinyl)-1,2,4,4a-tetrahydro-2′H,6H-spiro[1,4-oxazino[4,3-a][1,2]oxazolo[4,5-g]quinoline-5,5′-pyrimidine]-2′,4′,6′(1′H,3′H)-trione] stands 3.3 µM; under `C[C@@H]1CN2c3c(cc4c(S(C)(=O)=O)noc4c3F)CC3(C(=O)NC(=O)NC3=O)[C@H]2[C@H](C)O1` (relative stereo) [Example 182, (2R,4S,4aS)-rel-11-fluoro-2,4-dimethyl-8-(methylsulfonyl)-1,2,4,4a-tetrahydro-2′H,6H-spiro[1,4-oxazino[4,3-a][1,2]oxazolo[4,5-g]quinoline-5,5′-pyrimidine]-2′,4′,6′(1′H,3′H)-trione], 2.4 µM.
The same measure, in the same setting: under `C[C@@H]1CN2c3c(cc4c(C#N)noc4c3F)CC3(C(=O)NC(=O)NC3=O)[C@H]2[C@H](C)O1` (relative stereo) [Example 183, (2R,4S,4aS)-rel-11-fluoro-2,4-dimethyl-2′,4′,6′-trioxo-1,1′,2,3′,4,4′,4a,6′-octahydro-2′H,6H-spiro[1,4-oxazino[4,3-a][1,2]oxazolo[4,5-g]quinoline-5,5′-pyrimidine]-8-carbonitrile] stands 12 µM; under `C[C@@H]1CN2c3c(cc4c(-n5cc(C(=O)O)cn5)noc4c3F)CC3(C(=O)NC(=O)NC3=O)[C@H]2[C@H](C)O1` (relative stereo) [Example 186, 1-[(2R,4S,4aS)-rel-11-fluoro-2,4-dimethyl-2′,4′,6′-trioxo-1,1′,2,3′,4,4′,4a,6′-octahydro-2′H,6H-spiro[1,4-oxazino[4,3-a][1,2]oxazolo[4,5-g]quinoline-5,5′-pyrimidin]-8-yl]-1H-pyrazole-4-carboxylic acid], 7.6 µM; under `C[C@@H]1CN2c3c(cc4c(-n5cc(C(=O)N(C)C)cn5)noc4c3F)CC3(C(=O)NC(=O)NC3=O)[C@H]2[C@H](C)O1` (relative stereo) [Example 187, 1-[(2R,4S,4aS)-rel-11-fluoro-2,4-dimethyl-2′,4′,6′-trioxo-1,1′,2,3′,4,4′,4a,6′-octahydro-2′H,6H-spiro[1,4-oxazino[4,3-a][1,2]oxazolo[4,5-g]quinoline-5,5′-pyrimidin]-8-yl]-N,N-dimethyl-1H-pyrazole-4-carboxamide], 3.3 µM.
As for `CNC(=O)c1cnn(-c2noc3c(F)c4c(cc23)CC2(C(=O)NC(=O)NC2=O)[C@H]2[C@H](C)O[C@H](C)CN42)c1` (relative stereo) [Example 188, 1-[(2R,4S,4aS)-rel-11-fluoro-2,4-dimethyl-2′,4′,6′-trioxo-1,1′,2,3′,4,4′,4a,6′-octahydro-2′H,6H-spiro[1,4-oxazino[4,3-a][1,2]oxazolo[4,5-g]quinoline-5,5′-pyrimidin]-8-yl]-N-methyl-1H-pyrazole-4-carboxamide], the IC50 amounted to 2.7 µM.
`C[C@@H]1CN2c3c(cc4c(-n5cc(C(N)=O)cn5)noc4c3F)CC3(C(=O)NC(=O)NC3=O)[C@H]2[C@H](C)O1` (relative stereo) [Example 189, 1-[(2R,4S,4aS)-rel-11-fluoro-2,4-dimethyl-2′,4′,6′-trioxo-1,1′,2,3′,4,4′,4a,6′-octahydro-2′H,6H-spiro[1,4-oxazino[4,3-a][1,2]oxazolo[4,5-g]quinoline-5,5′-pyrimidin]-8-yl]-1H-pyrazole-4-carboxamide]: the half-inhibitory concentration (IC50) turned out to be 2.2 µM.
As to `C[C@@H]1CN2c3c(cc4c(-n5cc(CO)cn5)noc4c3F)CC3(C(=O)NC(=O)NC3=O)[C@H]2[C@H](C)O1` (relative stereo) [Example 190, (2R,4S,4aS)-rel-11-fluoro-8-[4-(hydroxymethyl)-1H-pyrazol-1-yl]-2,4-dimethyl-1,2,4,4a-tetrahydro-2′H,6H-spiro[1,4-oxazino[4,3-a][1,2]oxazolo[4,5-g]quinoline-5,5′-pyrimidine]-2′,4′,6′(1′H,3′H)-trione], the IC50 is 2.1 µM.
On to `C[C@@H]1CN2c3c(cc4c(C(N)=S)noc4c3F)CC3(C(=O)NC(=O)NC3=O)[C@H]2[C@H](C)O1` (relative stereo) [Intermediate 575, (2R,4S,4aS)-rel-11-fluoro-2,4-dimethyl-2′,4′,6′-trioxo-1,1′,2,3′,4,4′,4a,6′-octahydro-2′H,6H-spiro[1,4-oxazino[4,3-a][1,2]oxazolo[4,5-g]quinoline-5,5′-pyrimidine]-8-carbothioamide], for which the IC50 worked out at 1 µM.
In the case of `CC1O[C@H](C)CN2c3c(cc4c(-c5cnccn5)noc4c3F)CC3(C(=O)NC(=O)NC3=O)[C@H]12` (stereo in doubt) [Example 165(a), (2R,4S,4aR)-11-fluoro-2,4-dimethyl-8-(pyrazin-2-yl)-2,4,4a,6-tetrahydro-1H,1′H-spiro[isoxazolo[4,5-g][1,4]oxazino[4,3-a]quinoline-5,5′-pyrimidine]-2′,4′,6′(3′H)-trione], the concentration for half-maximal inhibition (IC50) is 7.8 µM.
For the molecule `Cc1noc2c(F)c3c(cc12)CC1(C(=O)NC(=O)NC1=O)[C@@H]1[C@@H](C)O[C@@H](C)CN31` [Example 2(a), (2S,4R,4aR)-11-fluoro-2,4,8-trimethyl-2,4,4a,6-tetrahydro-1′H,1′H-spiro[isoxazolo[4,5-g][1,4]oxazino[4,3-a]quinoline-5,5′-pyrimidine]-2′,4′,6′(3′H)-trione], the IC50 came to 83 µM.
With `Cc1noc2c(F)c3c(cc12)CC1(C(=O)NC(=O)NC1=O)[C@H]1[C@H](C)O[C@H](C)CN31` [Example 2(b), (2R,4S,4aS)-11-fluoro-2,4,8-trimethyl-2,4,4a,6-tetrahydro-1H,1′H-spiro[isoxazolo[4,5-g][1,4]oxazino[4,3-a]quinoline-5,5′-pyrimidine]-2′,4′,6′(3′H)-trione], the IC50 amounted to 0.3 µM.
